{"source": "patent US20040132037A1", "about": "“Materials and methods for the induction of premature chromosone condensation” (priority 2004, published 2004)", "key": {"mitogen-stimulated HPBL": {"system": "mitogen-stimulated HPBL", "assay": "PCC induction (PCC index) by OA in mitogen-stimulated HPBL", "format": "cell-based, human", "method": "(§1) PCC spreads may be prepared according to standard cytogenetic procedures directly after the indicated treatment. Briefly, cells may be treated with a hypotonic potassium chloride (0.075 M) solution for 5 minutes and fixed in acetic: methanol (1:3) fixative. Fixed cells may be dropped onto acid cleaned glass slides.\n(§2) To directly visualize the spread chromosomes, the slides may be stained. Suitable stains are known to those of skill in the art, for example, a 4% aqueous solution of Giemsa stain may be used for observation under a light microscope. Coded slides can be analyzed under 1000×magnification. Cells with condensed chromatin material displaying at least partial separation of chromosomes are scored as PCC spreads.\n(§3) The PCC index may be determined as follows. [formula]\nHPBLs prepared as described above may be incubated in cell culture medium supplemented with an energy source. In order to determine the optimal OA concentration and duration of incubation for PCC, phytohemagglutinin (PHA, 10 μg/ml; Murex Diagnostics) was subsequently added to the medium to stimulate proliferation.\n(§4) The HPBL were treated with OA at concentrations ranging from 0.25 to 1 μM in a cell culture medium containing 100 μM ATP and incubated at 37° C. for varying durations of up to 24 hours. Slides were prepared and PCC index was determined as explained above."}, "unstimulated HPBL": {"system": "unstimulated HPBL", "assay": "PCC induction (PCC index) in unstimulated HPBL", "format": "cell-based, human", "conditions": "cell culture medium containing OA alone, no mitogen", "method": "as §1, §2, §3, §4\nIn the following working example of the present invention, PCC induction in unstimulated HPBL was accomplished by the addition of p34^cdc2/cyclin B kinase to the complete media supplemented with ATP (100 μM) containing OA (0.75 μM) and incubation for three hours at 37° C. […]"}, "[1]": {"system": "human myeloid leukemic cell lines", "conditions": "cited from earlier work"}}, "note": "Read-outs that look alike come from different tables or passages of the source.", "data": [{"smiles": "C=C1[C@@H](O)[C@@H]2O[C@]3(CC[C@H](/C=C/[C@@H](C)[C@@H]4CC(C)=C[C@@]5(O[C@H](C[C@@](C)(O)C(=O)O)CC[C@H]5O)O4)O3)CC[C@H]2O[C@@H]1[C@@H](O)C[C@H](C)[C@H]1O[C@@]2(CCCCO2)CC[C@H]1C", "note": "[OA, okadaic acid]", "values": [{"measurement": "PCC levels determined by PCC index compared with controls", "setting": "mitogen-stimulated HPBL; OA 0.25 μM, within 1 hour, p<0.01, Student's t-test", "value": "significant"}, {"measurement": "cytostatic effect", "setting": "mitogen-stimulated HPBL; OA 0.75 μM", "value": "not cytostatic"}, {"measurement": "PCC index, maximum", "setting": "mitogen-stimulated HPBL; OA 1 μM, 8 hours, PHA 10 μg/ml, 100 μM ATP, 37° C.", "value": 61, "unit": "%"}, {"measurement": "quality of PCC spreads", "setting": "mitogen-stimulated HPBL; prolonged treatment with higher concentrations of OA, possibly due to toxicity", "value": "poor spread quality"}, {"measurement": "PCC induction", "setting": "unstimulated HPBL", "value": "did not result in PCC induction"}, {"measurement": "phase of cell-cycle arrest", "setting": "[1]; higher PCC inducible concentrations (above 0.5 μM)", "value": "G1-S-phase"}, {"measurement": "phase of cell-cycle arrest", "setting": "[1]; lower concentrations", "value": "G2-M phase"}]}]}
